Assays:
Test in all cases: KINOMEscan
Type in all cases: binding
[1] = target: T1, TYK2(JH2domain-pseudokinase) (Homo sapiens, UniProt P29597)
T1 construct: TYK2(JH2domain); purchased KINOMEscan (Ambit) screening platform
From the text: (§1) The activity of the compounds was confirmed using Compound S-(I-1) in the KINOMEscan screening platform.

[2] = target: T2, RSK4(Kin.Dom.2-C-terminal) (Homo sapiens, UniProt Q9UK32)
T2 construct: Kin.Dom.2; purchased KINOMEscan (Ambit)
From the text: as §1

JNK3 = target: T3, JNK3 (Homo sapiens, UniProt P53779)
T3 construct: purchased KINOMEscan (Ambit) screening platform
From the text: as §1

IRAK4 = target: T4, IRAK4 (Homo sapiens, UniProt Q9NWZ3)
T4 construct: purchased KINOMEscan (Ambit) screening platform
From the text: as §1

MST1 = target: T5, MST1 (Homo sapiens, UniProt Q13043)
T5 construct: purchased KINOMEscan screening platform (Ambit)
T5 sequence (Q13043 whole entry): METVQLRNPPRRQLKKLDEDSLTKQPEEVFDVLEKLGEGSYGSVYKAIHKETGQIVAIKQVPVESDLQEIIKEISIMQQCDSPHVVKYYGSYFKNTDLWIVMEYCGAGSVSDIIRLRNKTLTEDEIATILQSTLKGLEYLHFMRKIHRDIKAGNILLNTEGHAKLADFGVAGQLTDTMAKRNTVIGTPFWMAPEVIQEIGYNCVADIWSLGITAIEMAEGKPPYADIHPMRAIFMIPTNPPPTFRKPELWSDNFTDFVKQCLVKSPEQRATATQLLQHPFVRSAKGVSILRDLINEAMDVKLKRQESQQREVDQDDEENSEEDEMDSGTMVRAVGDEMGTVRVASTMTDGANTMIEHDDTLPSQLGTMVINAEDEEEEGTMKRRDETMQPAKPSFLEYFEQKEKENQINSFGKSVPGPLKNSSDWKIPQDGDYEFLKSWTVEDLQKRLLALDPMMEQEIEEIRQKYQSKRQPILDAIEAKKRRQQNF
From the text: as §1

[3] = target: T6, EGFR(L747-S752del, P753S) (Homo sapiens, UniProt P00533, DEL747-752/P753S)
T6 construct: purchased KINOMEscan (Ambit)
From the text: as §1

[4] = target: T7, JAK1(JH1domain-catalytic) (Homo sapiens, UniProt P23458)
T7 construct: JAK1(JH1domain); purchased KINOMEscan (Ambit) screening platform
T7 sequence (P23458 875-1153 limits assumed): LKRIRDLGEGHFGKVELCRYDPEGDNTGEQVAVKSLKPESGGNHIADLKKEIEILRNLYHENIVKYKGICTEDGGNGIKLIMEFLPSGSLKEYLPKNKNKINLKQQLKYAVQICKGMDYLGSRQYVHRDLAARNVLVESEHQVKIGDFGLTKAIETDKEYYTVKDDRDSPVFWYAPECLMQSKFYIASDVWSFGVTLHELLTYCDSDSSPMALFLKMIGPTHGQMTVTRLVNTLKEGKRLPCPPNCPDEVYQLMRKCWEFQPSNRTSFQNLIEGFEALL
From the text: as §1

p38-alpha = target: T8, p38-alpha (Homo sapiens, UniProt Q16539)
T8 construct: purchased KINOMEscan (Ambit)
From the text: as §1

MET(M1250T) = target: T9, MET(M1250T) (Homo sapiens, UniProt P08581, M1250T)
T9 construct: purchased KINOMEscan screening platform (Ambit)
From the text: as §1

[5] = target: T10, JAK2(JH1domain-catalytic) (Homo sapiens, UniProt O60674)
T10 construct: JAK2(JH1domain-; purchased KINOMEscan (Ambit) screening platform
From the text: as §1

ARK5 = target: T11, ARK5 (Homo sapiens, UniProt O60285)
T11 construct: purchased KINOMEscan (Ambit)
From the text: as §1

CHEK1 = target: T12, CHEK1 (Homo sapiens, UniProt O14757)
T12 construct: purchased KINOMEscan (Ambit) screening platform
From the text: as §1

FLT3(ITD) = test system: FLT3(ITD)
From the text: as §1

[6] = target: T13, TYK2(JH1domain-catalytic) (Homo sapiens, UniProt P29597)
T13 construct: TYK2(JH1domain); purchased KINOMEscan (Ambit) screening platform
From the text: as §1

EGFR(G719C) = target: T14, EGFR(G719C) (Homo sapiens, UniProt P00533, G719C)
T14 construct: purchased KINOMEscan (Ambit)
From the text: as §1

CSNK1G3 = target: T15, CSNK1G3 (Homo sapiens, UniProt Q9Y6M4)
T15 construct: purchased KINOMEscan (Ambit) screening platform
From the text: as §1

CSNK1G2 = target: T16, CSNK1G2 (Homo sapiens, UniProt P78368)
T16 construct: purchased KINOMEscan (Ambit) screening platform
From the text: as §1

LZK = target: T17, LZK (Homo sapiens, UniProt O43283)
T17 construct: purchased KINOMEscan screening platform (Ambit)
From the text: as §1

SIK = target: T18, SIK (Homo sapiens, UniProt P57059)
T18 construct: purchased KINOMEscan (Ambit)
From the text: as §1

MKK7 = target: T19, MKK7 (Homo sapiens, UniProt O14733)
T19 construct: purchased KINOMEscan screening platform (Ambit)
From the text: as §1

MLK3 = target: T20, MLK3 (Homo sapiens, UniProt Q16584)
T20 construct: purchased KINOMEscan screening platform (Ambit)
T20 sequence (Q16584 whole entry): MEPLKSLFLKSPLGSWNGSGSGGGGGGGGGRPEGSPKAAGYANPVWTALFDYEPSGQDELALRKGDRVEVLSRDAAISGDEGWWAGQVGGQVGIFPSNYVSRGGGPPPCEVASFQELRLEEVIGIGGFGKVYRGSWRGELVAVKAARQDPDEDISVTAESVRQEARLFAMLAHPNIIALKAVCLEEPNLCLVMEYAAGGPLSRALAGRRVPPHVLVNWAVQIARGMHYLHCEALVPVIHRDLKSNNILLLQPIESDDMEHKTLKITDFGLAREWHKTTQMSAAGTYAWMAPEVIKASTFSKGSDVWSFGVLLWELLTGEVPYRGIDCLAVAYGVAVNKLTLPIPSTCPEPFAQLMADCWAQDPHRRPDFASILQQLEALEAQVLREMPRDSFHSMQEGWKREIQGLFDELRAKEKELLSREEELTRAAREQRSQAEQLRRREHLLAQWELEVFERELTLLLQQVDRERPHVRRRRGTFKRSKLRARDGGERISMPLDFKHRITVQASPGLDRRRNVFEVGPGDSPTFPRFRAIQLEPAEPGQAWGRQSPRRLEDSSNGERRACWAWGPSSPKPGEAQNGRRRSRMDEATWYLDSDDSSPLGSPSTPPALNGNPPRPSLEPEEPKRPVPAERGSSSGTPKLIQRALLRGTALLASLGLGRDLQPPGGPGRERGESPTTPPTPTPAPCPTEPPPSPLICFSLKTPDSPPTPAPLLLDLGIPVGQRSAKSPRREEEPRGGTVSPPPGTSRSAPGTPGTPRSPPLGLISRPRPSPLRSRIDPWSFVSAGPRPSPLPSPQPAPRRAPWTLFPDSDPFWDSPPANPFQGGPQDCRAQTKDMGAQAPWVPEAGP
From the text: as §1

CSNK1G1 = target: T21, CSNK1G1 (Homo sapiens, UniProt Q9HCP0)
T21 construct: purchased KINOMEscan (Ambit) screening platform
From the text: as §1

CDK3 = target: T22, CDK3 (Homo sapiens, UniProt Q00526)
T22 construct: purchased KINOMEscan (Ambit)
From the text: as §1

JNK2 = target: T23, JNK2 (Homo sapiens, UniProt P45984)
T23 construct: purchased KINOMEscan (Ambit) screening platform
T23 sequence (P45984 whole entry): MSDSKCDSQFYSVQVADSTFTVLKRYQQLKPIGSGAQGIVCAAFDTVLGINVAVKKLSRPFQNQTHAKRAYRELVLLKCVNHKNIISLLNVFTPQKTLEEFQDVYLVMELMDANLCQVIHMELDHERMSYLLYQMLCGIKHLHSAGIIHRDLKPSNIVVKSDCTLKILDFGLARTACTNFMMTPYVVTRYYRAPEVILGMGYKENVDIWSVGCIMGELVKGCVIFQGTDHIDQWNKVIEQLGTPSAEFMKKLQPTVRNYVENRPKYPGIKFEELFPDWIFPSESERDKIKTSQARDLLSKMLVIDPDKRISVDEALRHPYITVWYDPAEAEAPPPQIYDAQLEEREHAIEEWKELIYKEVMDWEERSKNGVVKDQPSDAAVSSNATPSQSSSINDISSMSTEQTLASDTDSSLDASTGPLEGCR
From the text: as §1

[7] = target: T24, EGFR(L747-E749del, A750P) (Homo sapiens, UniProt P00533, A750P/DEL747-749)
T24 construct: purchased KINOMEscan (Ambit)
From the text: as §1

CDK8 = target: T25, CDK8 (Homo sapiens, UniProt P49336)
T25 construct: purchased KINOMEscan (Ambit)
From the text: as §1

CIT = target: T26, CIT (Homo sapiens, UniProt O14578)
T26 construct: purchased KINOMEscan (Ambit) screening platform
From the text: as §1

QSK = target: T27, QSK (Homo sapiens, UniProt Q9Y2K2)
T27 construct: KINOMEscan (Ambit)
From the text: as §1

EPHA5 = target: T28, EPHA5 (Homo sapiens, UniProt P54756)
T28 construct: purchased KINOMEscan (Ambit)
From the text: as §1

LATS2 = target: T29, LATS2 (Homo sapiens, UniProt Q9NRM7)
T29 construct: purchased KINOMEscan (Ambit) screening platform
From the text: as §1

SYK = target: T30, SYK (Homo sapiens, UniProt P43405)
T30 construct: purchased KINOMEscan (Ambit)
From the text: as §1

DLK = target: T31, DLK (Homo sapiens, UniProt Q12852)
T31 construct: purchased KINOMEscan (Ambit)
From the text: as §1

ULK3 = target: T32, ULK3 (Homo sapiens, UniProt Q6PHR2)
T32 construct: purchased KINOMEscan (Ambit) screening platform
From the text: as §1

EGFR(L747-T751del, Sins) = test system: EGFR(L747-T751del, Sins)
From the text: as §1

ITK = target: T33, ITK (Homo sapiens, UniProt Q08881)
T33 construct: purchased KINOMEscan (Ambit) screening platform
From the text: as §1

ULK1 = target: T34, ULK1 (Homo sapiens, UniProt O75385)
T34 construct: purchased KINOMEscan (Ambit) screening platform
From the text: as §1

CSK = target: T35, CSK (Homo sapiens, UniProt P41240)
T35 construct: purchased KINOMEscan (Ambit) screening platform
From the text: as §1

PFTK1 = target: T36, PFTK1 (Homo sapiens, UniProt O94921)
T36 construct: purchased KINOMEscan screening platform (Ambit)
From the text: as §1

EPHB2 = target: T37, EPHB2 (Homo sapiens, UniProt P29323)
T37 construct: purchased KINOMEscan (Ambit)
From the text: as §1

BMPR2 = target: T38, BMPR2 (Homo sapiens, UniProt Q13873)
T38 construct: purchased KINOMEscan (Ambit)
From the text: as §1

CDC2L5 = target: T39, CDC2L5 (Homo sapiens, UniProt Q14004)
T39 construct: purchased KINOMEscan (Ambit)
From the text: as §1

EGFR(L858R, T790M) = target: T40, EGFR(L858R, T790M) (Homo sapiens, UniProt P00533, L858R/T790M)
T40 construct: purchased KINOMEscan (Ambit)
From the text: as §1

ACVR2B = target: T41, ACVR2B (Homo sapiens, UniProt Q13705)
T41 construct: purchased KINOMEscan (Ambit)
From the text: as §1

BTK = target: T42, BTK (Homo sapiens, UniProt Q06187)
T42 construct: purchased KINOMEscan (Ambit)
T42 sequence (Q06187 whole entry): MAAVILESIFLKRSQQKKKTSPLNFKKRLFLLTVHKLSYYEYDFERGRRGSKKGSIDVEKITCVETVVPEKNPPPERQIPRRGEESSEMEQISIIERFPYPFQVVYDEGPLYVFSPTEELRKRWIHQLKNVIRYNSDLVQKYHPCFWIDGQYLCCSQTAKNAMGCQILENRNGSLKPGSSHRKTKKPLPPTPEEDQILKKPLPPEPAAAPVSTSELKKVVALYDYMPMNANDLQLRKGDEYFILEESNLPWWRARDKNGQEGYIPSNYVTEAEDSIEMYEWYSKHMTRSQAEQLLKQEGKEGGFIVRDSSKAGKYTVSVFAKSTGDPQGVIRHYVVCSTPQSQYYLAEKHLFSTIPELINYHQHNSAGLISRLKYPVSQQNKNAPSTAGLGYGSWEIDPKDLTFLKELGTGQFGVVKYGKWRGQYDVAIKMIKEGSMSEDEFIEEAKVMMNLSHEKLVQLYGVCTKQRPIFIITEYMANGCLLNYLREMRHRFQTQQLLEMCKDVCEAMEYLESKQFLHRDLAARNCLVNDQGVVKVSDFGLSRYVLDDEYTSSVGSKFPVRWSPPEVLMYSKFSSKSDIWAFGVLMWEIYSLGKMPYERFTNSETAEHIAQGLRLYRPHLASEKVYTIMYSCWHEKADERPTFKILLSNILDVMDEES
From the text: as §1

DCAMKL1 = target: T43, DCAMKL1 (Homo sapiens, UniProt O15075)
T43 construct: purchased KINOMEscan (Ambit)
From the text: as §1

EGFR(E746-A750del) = target: T44, EGFR(E746-A750del) (Homo sapiens, UniProt P00533, DEL746-750)
T44 construct: purchased KINOMEscan (Ambit)
From the text: as §1

CDK2 = target: T45, CDK2 (Homo sapiens, UniProt P24941)
T45 construct: purchased KINOMEscan (Ambit)
From the text: as §1

[8] = target: T46, RSK4(Kin.Dom.1-N-terminal) (Homo sapiens, UniProt Q9UK32)
T46 construct: Kin.Dom.1; purchased KINOMEscan (Ambit)
From the text: as §1

EGFR = target: T47, EGFR (Homo sapiens, UniProt P00533)
T47 construct: purchased KINOMEscan (Ambit)
From the text: as §1

MST3 = target: T48, MST3 (Homo sapiens, UniProt Q9Y6E0)
T48 construct: purchased KINOMEscan screening platform (Ambit)
From the text: as §1

PKMYT1 = target: T49, PKMYT1 (Homo sapiens, UniProt Q99640)
T49 construct: purchased KINOMEscan (Ambit) screening platform
From the text: as §1

LOK = target: T50, LOK (Homo sapiens, UniProt O94804)
T50 construct: purchased KINOMEscan (Ambit) screening platform
From the text: as §1

[9] = target: T51, JAK1(JH2domain-pseudokinase) (Homo sapiens, UniProt P23458)
T51 construct: JAK1(JH2domain-; purchased KINOMEscan (Ambit) screening platform
From the text: as §1

MARK4 = target: T52, MARK4 (Homo sapiens, UniProt Q96L34)
T52 construct: purchased KINOMEscan screening platform (Ambit)
From the text: as §1

EGFR(S752-I759del) = target: T53, EGFR(S752-I759del) (Homo sapiens, UniProt P00533, DEL752-759)
T53 construct: purchased KINOMEscan (Ambit)
From the text: as §1

PIP5K1C = target: T54, PIP5K1C (Homo sapiens, UniProt O60331)
T54 construct: purchased KINOMEscan (Ambit) screening platform
From the text: as §1

WNK1 = target: T55, WNK1 (Homo sapiens, UniProt Q9H4A3)
T55 construct: purchased KINOMEscan (Ambit) screening platform
T55 sequence (Q9H4A3 whole entry): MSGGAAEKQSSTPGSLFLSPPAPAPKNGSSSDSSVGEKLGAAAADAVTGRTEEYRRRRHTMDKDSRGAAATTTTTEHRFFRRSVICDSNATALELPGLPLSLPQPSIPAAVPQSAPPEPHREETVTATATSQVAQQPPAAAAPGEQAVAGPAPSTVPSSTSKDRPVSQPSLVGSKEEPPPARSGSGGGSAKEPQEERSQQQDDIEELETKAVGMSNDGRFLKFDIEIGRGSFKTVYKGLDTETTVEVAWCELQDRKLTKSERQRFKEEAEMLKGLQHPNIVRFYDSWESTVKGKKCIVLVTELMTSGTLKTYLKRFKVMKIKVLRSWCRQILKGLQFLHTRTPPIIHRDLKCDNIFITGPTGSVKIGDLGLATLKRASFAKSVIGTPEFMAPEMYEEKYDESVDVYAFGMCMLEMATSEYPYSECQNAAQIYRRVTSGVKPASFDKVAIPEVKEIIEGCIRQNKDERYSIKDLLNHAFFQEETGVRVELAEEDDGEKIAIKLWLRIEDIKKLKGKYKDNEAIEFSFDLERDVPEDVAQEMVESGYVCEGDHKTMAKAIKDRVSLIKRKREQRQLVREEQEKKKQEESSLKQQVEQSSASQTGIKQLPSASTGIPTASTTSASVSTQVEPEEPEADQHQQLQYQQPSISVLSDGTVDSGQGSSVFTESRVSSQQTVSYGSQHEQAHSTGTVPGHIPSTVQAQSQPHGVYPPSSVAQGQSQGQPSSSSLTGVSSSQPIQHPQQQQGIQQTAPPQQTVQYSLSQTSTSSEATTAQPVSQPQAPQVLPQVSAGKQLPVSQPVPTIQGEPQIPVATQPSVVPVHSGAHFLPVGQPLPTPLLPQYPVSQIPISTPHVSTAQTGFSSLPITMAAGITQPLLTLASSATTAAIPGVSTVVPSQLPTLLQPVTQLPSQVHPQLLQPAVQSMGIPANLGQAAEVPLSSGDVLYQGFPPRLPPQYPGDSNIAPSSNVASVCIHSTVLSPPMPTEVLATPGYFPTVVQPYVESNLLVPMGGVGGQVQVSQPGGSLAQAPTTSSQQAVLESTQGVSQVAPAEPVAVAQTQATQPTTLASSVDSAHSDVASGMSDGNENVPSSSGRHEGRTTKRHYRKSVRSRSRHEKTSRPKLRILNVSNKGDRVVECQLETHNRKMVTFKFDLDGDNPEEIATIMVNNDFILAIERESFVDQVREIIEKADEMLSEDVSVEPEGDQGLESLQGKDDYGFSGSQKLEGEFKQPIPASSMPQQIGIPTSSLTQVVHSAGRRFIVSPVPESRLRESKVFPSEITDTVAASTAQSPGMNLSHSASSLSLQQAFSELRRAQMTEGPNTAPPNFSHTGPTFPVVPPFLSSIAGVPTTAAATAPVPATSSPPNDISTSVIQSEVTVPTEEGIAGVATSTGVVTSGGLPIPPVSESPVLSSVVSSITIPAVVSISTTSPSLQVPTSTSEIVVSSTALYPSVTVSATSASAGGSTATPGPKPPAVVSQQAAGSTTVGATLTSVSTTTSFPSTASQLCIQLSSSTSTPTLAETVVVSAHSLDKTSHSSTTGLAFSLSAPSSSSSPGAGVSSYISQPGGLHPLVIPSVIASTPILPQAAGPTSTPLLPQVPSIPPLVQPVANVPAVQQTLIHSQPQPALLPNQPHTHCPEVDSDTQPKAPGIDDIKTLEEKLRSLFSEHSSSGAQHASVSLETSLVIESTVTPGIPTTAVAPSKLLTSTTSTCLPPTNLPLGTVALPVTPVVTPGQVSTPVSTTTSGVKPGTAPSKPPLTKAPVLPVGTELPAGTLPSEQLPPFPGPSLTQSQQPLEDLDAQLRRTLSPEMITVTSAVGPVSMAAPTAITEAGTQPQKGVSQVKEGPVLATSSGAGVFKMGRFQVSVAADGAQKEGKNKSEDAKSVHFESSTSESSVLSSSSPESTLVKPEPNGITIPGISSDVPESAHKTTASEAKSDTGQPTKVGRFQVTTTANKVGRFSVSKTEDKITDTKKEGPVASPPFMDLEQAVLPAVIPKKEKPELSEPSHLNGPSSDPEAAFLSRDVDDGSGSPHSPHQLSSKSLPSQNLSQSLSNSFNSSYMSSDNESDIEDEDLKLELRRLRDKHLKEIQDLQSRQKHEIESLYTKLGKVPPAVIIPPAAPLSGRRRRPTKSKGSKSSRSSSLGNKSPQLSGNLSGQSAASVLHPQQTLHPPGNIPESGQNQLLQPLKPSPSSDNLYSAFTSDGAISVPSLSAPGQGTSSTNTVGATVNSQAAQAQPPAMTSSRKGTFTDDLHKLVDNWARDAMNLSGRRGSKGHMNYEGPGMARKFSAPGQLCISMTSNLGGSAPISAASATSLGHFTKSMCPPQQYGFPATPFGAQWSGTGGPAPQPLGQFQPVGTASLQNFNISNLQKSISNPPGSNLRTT
From the text: as §1

PLK2 = target: T56, PLK2 (Homo sapiens, UniProt Q9NYY3)
T56 construct: purchased KINOMEscan (Ambit) screening platform
From the text: as §1

MET = target: T57, MET (Homo sapiens, UniProt P08581)
T57 construct: purchased KINOMEscan screening platform (Ambit)
From the text: as §1

SNARK = target: T58, SNARK (Homo sapiens, UniProt Q9H093)
T58 construct: purchased KINOMEscan (Ambit)
From the text: as §1

JNK1 = target: T59, JNK1 (Homo sapiens, UniProt P45983)
T59 construct: purchased KINOMEscan (Ambit) screening platform
From the text: as §1

EGFR(L861Q) = target: T60, EGFR(L861Q) (Homo sapiens, UniProt P00533, L861Q)
T60 construct: purchased KINOMEscan (Ambit)
From the text: as §1

PRKR = target: T61, PRKR (Homo sapiens, UniProt P19525)
T61 construct: KINOMEscan (Ambit)
From the text: as §1

MAP4K3 = target: T62, MAP4K3 (Homo sapiens, UniProt Q8IVH8)
T62 construct: purchased KINOMEscan screening platform (Ambit)
From the text: as §1

CDK11 = target: T63, CDK11 (Homo sapiens, UniProt Q9BWU1)
T63 construct: purchased KINOMEscan (Ambit)
From the text: as §1

EGFR(L858R) = target: T64, EGFR(L858R) (Homo sapiens, UniProt P00533, L858R)
T64 construct: purchased KINOMEscan (Ambit)
From the text: as §1

EGFR(G719S) = target: T65, EGFR(G719S) (Homo sapiens, UniProt P00533, G719S)
T65 construct: purchased KINOMEscan (Ambit)
From the text: as §1

MET(Y1235D) = target: T66, MET(Y1235D) (Homo sapiens, UniProt P08581, Y1235D)
T66 construct: purchased KINOMEscan screening platform (Ambit)
From the text: as §1

EGFR(T790M) = target: T67, EGFR(T790M) (Homo sapiens, UniProt P00533, T790M)
T67 construct: purchased KINOMEscan (Ambit)
From the text: as §1

Compound: C=CC(=O)N1CCC(Nc2nccc(Oc3cc(C(=O)Nc4ccc(CN5CCN(CC)CC5)c(C(F)(F)F)c4)ccc3C)n2)C1 (stereo not drawn) [S-(I-1)]
- Score [1]: 92
- Score [2]: 91
- Score (JNK3): 52
- Score (IRAK4): 81
- Score (MST1): 100
- Score [3]: 38
- Score [4]: 62
- Score (p38-alpha): 0
- Score (MET(M1250T)): 99
- Score [5]: 84
- Score (ARK5): 83
- Score (CHEK1): 100
- Score (FLT3(ITD)): 24
- Score [6]: 91
- Score (EGFR(G719C)): 59
- Score (CSNK1G3): 92
- Score (CSNK1G2): 97
- Score (LZK): 100
- Score (SIK): 87
- Score (MKK7): 0.9
- Score (MLK3): 97
- Score (CSNK1G1): 91
- Score (CDK3): 56
- Score (JNK2): 0.35
- Score [7]: 52
- Score (CDK8): 2.8
- Score (CIT): 61
- Score (QSK): 87
- Score (EPHA5): 87
- Score (LATS2): 100
- Score (SYK): 24
- Score (DLK): 90
- Score (ULK3): 78
- Score (EGFR(L747-T751del, Sins)): 43
- Score (ITK): 98
- Score (ULK1): 94
- Score (CSK): 58
- Score (PFTK1): 77
- Score (EPHB2): 91
- Score (BMPR2): 100
- Score (CDC2L5): 65
- Score (EGFR(L858R, T790M)): 94
- Score (ACVR2B): 93
- Score (BTK): 98
- Score (DCAMKL1): 99
- Score (EGFR(E746-A750del)): 66
- Score (CDK2): 77
- Score [8]: 90
- Score (EGFR): 68
- Score (MST3): 88
- Score (PKMYT1): 89
- Score (LOK): 0.35
- Score [9]: 100
- Score (MARK4): 100
- Score (EGFR(S752-I759del)): 90
- Score (PIP5K1C): 52
- Score (WNK1): 86
- Score (PLK2): 89
- Score (MET): 100
- Score (SNARK): 100
- Score (JNK1): 28
- Score (EGFR(L861Q)): 66
- Score (PRKR): 85
- Score (MAP4K3): 93
- Score (CDK11): 0
- Score (EGFR(L858R)): 84
- Score (EGFR(G719S)): 81
- Score (MET(Y1235D)): 96
- Score (EGFR(T790M)): 90
